We go through four molecules from PubChem BioAssay AID1918934 (Molecular Pharmacology Branch, DTP, NCI, 2023).

For the assay, the system named is 292921-168-R-J2-PDC complex spheroid viability. Briefly: Anticancer human tumor 292921-168-R-J2-PDC patient-derived pancreatic carcinoma cell line growth inhibition. The settings on record: for viability, T/C: stronger effect = lower value. In short, it runs like this: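 Multicellular complex spheroids of tumor cells with human endothelial cells (HUVEC) and mesenchymal stem cells; the LSD1 inhibitor iadademstat was combined with standard-of-care or investigational agents. Top concentration at or near clinical Cmax, half-log dilutions; final DMSO ≤0.25%.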

The mark [1] stands for this setting: curve of first compound, second compound 0.1 µM.
The mark [2] stands for this setting: curve of first compound, second compound 0.316 µM.
[3] abbreviates: curve of first compound, second compound 1 µM.
[4] abbreviates: curve of first compound, second compound 3.16 µM.
Setting [5] is: curve of first compound, second compound 10 µM.
Where [6] appears, read: second compound 0.1 µM, first compound 0.0316 µM.
The mark [7] stands for this setting: second compound 0.1 µM, first compound 0.1 µM.
Setting [8] is: second compound 0.1 µM, first compound 0.316 µM.
Where [9] appears, read: second compound 0.1 µM, first compound 1 µM.
Where [10] appears, read: second compound 0.1 µM, first compound 3.16 µM.
Where [11] appears, read: second compound 0.1 µM, first compound 10 µM.
Setting [12] is: second compound 0.316 µM, first compound 0.0316 µM.
Setting [13] is: second compound 0.316 µM, first compound 0.1 µM.
Where [14] appears, read: second compound 0.316 µM, first compound 0.316 µM.
The mark [15] stands for this setting: second compound 0.316 µM, first compound 1 µM.
Setting [16] is: second compound 0.316 µM, first compound 3.16 µM.
The mark [17] stands for this setting: second compound 0.316 µM, first compound 10 µM.
Where [18] appears, read: second compound 1 µM, first compound 0.0316 µM.
Setting [19] is: second compound 1 µM, first compound 0.1 µM.
[20] abbreviates: second compound 1 µM, first compound 0.316 µM.
The mark [21] stands for this setting: second compound 1 µM, first compound 1 µM.
[22] abbreviates: second compound 1 µM, first compound 3.16 µM.
Setting [23] is: second compound 1 µM, first compound 10 µM.
Where [24] appears, read: second compound 3.16 µM, first compound 0.0316 µM.
Setting [25] is: second compound 3.16 µM, first compound 0.1 µM.
The mark [26] stands for this setting: second compound 3.16 µM, first compound 0.316 µM.
The mark [27] stands for this setting: second compound 3.16 µM, first compound 1 µM.
Where [28] appears, read: second compound 3.16 µM, first compound 3.16 µM.
Where [29] appears, read: second compound 3.16 µM, first compound 10 µM.
The mark [30] stands for this setting: second compound 10 µM, first compound 0.0316 µM.
Where [31] appears, read: second compound 10 µM, first compound 0.1 µM.
Where [32] appears, read: second compound 10 µM, first compound 0.316 µM.
The mark [33] stands for this setting: second compound 10 µM, first compound 1 µM.
The mark [34] stands for this setting: second compound 10 µM, first compound 3.16 µM.
The mark [35] stands for this setting: second compound 10 µM, first compound 10 µM.

Where “and” joins values, the source holds several entries; their conditions need not be identical. Equal values may be shown once. Some results are limits rather than exact numbers.
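Further: seven day compound exposure before luminescent viability read.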
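Wherever viability, T/C is given: 100% = DMSO vehicle control wells.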

On to `CC1COCCN1c1cc(C2(S(C)(=N)=O)CC2)nc(-c2ccnc3[nH]ccc23)n1` (centres undefined) + NC1CC1c1ccc(-c2cccc(O)c2)cc1, for which the concentration for half-maximal inhibition (IC50) is, setting by setting: under setting [1], 368 nM; under setting [2], 318 nM; under setting [3], 293 nM; under setting [4], 253 nM; under setting [5], 104 nM. Moreover, the viability, T/C reads like this: under setting [6], 88.3%; under setting [7], 82%; under setting [8], 51%; under setting [9], 28.8%; under setting [10], 15.2%; under setting [11], 11.4%. In addition, the viability, T/C under setting [12] was 66.8%; the viability, T/C under setting [13] was 58.8%; the viability, T/C under setting [14] is 51.8%; the viability, T/C under setting [15] is 26.5%; the viability, T/C under setting [16] is 15.4%; the viability, T/C under setting [17] is 11.4%. Also, the viability, T/C was 63.1% under setting [18]; 61.6% under setting [19]; 48.9% under setting [20]; 25.5% under setting [21]; 13.2% under setting [22]; 11.5% under setting [23]. Further, the viability, T/C is, setting by setting: under setting [24], 59.4%; under setting [25], 63.6%; under setting [26], 46.3%; under setting [27], 23.2%; under setting [28], 13.7%; under setting [29], 11.8%. Further, the viability, T/C by setting is: under setting [30], 50.9%; under setting [31], 53.3%; under setting [32], 39.6%; under setting [33], 27.1%; under setting [34], 12.2%; under setting [35], 11.4%.

As for `O=C(C=Cc1cccc(S(=O)(=O)Nc2ccccc2)c1)NO`, the viability, T/C is 47.6% and 52.8% (compound 0.00949 µM); 41% and 44.1% (compound 0.03 µM); 28.8% and 32.3% (compound 0.0949 µM); 18.1% and 25.8% (compound 0.3 µM); 0.52% and 1.26% (compound 0.949 µM); 0.15% (compound 3 µM). Under “curve of compound”, the IC50 was < 9.49 nM and 12.8 nM.

As to `COc1cc(Nc2ncc3c(n2)-c2ccc(Cl)cc2C(c2c(F)cccc2OC)=NC3)ccc1C(=O)O`, the viability, T/C is 33% and 38.1% (compound 0.00316 µM); 40.7% and 42.1% (compound 0.01 µM); 36% and 39.1% (compound 0.0316 µM); 30.2% and 37.9% (compound 0.1 µM); 27.7% and 29.6% (compound 0.316 µM); 16.1% and 17.5% (compound 1 µM). In addition, under “curve of compound”, the 50% inhibitory concentration (IC50) was under 3.16 nM.

In the case of `COc1ccc([C@@H](O)c2cc(-c3ncnc4cc(N5CCOCC5)ccc34)c(F)cc2Cl)nn1` + NC1CC1c1ccc(-c2cccc(O)c2)cc1, the half-inhibitory concentration (IC50) reads like this: under setting [1], 403 nM; under setting [2], 270 nM; under setting [3], 158 nM; under setting [4], 131 nM; under setting [5], under 31.6 nM. Besides, the viability, T/C is 73.1% under setting [6]; 73.9% under setting [7]; 53.5% under setting [8]; 30.8% under setting [9]; 20.9% under setting [10]; 10.5% under setting [11]. The viability, T/C runs as follows: under setting [12], 72.5%; under setting [13], 69.6%; under setting [14], 44.4%; under setting [15], 28.2%; under setting [16], 18.2%; under setting [17], 10.7%. Moreover, the viability, T/C under setting [18] was 57.7%; the viability, T/C under setting [19] is 56.9%; the viability, T/C under setting [20] is 41.9%; the viability, T/C under setting [21] was 28.1%; the viability, T/C under setting [22] is 18%; the viability, T/C under setting [23] is 11.3%. Moreover, the viability, T/C under setting [24] was 54.9%; the viability, T/C under setting [25] was 55.8%; the viability, T/C under setting [26] is 38.8%; the viability, T/C under setting [27] is 23.4%; the viability, T/C under setting [28] is 16.8%; the viability, T/C under setting [29] is 11.5%. Moreover, the viability, T/C is 44.6% under setting [30]; 43.3% under setting [31]; 30% under setting [32]; 20.8% under setting [33]; 15.5% under setting [34]; 12.2% under setting [35].
